# Target: YES1 kinase (Homo sapiens, UniProt P07947)
# Test: YES1 kinase inhibition, ADP Glo assay (Promega)
# Assay type: biochemical
# Conditions: compound 10 nM; read-out: YES1 enzyme, % inhibition, 10 nM
# Experimental: To evaluate the inhibitory activity against YES1 kinase of the compound according to the present invention, ADP Glo assay (Promega) was used, and the following method was performed with reference to the Promega kinase enzyme system protocol. To proceed with the experiment, buffers A-F and compound dilution plates were required.
# To prepare A.4X reaction buffer, 800 μl of 5X reaction buffer and 200 μl of distilled water were used. To prepare B.4X kinase buffer, 996.6 μl of A.4X reaction buffer, 2 μl of 0.1M DTT, and 3.2 μl of 2.5M MnCl2 were added and mixed. To prepare C.1X kinase buffer (containing 5% DMSO) used for compound dilution, 250 μl of B.4X kinase buffer, 700 μl of distilled water, and 50 μl of DMSO were added, so that the final DMSO concentration became 5%. Then, 10 mM compounds were diluted 100-fold to prepare 100 μM solutions, and then D.5X inhibitor solution was prepared so that the compound concentration became 5 uM. Using a 96-well plate, 5 μM compounds were 3-fold diluted using C.1X kinase buffer (containing 5% DMSO) to prepare compound plates with concentrations ranging from 0.25 μM to 5 μM. The resulting plates were stored at room temperature. To prepare E. 2.5X ATP/substrate mixture, 50 μl of B.4X kinase buffer, 50 μl of […], and 100 μl of substrate were mixed. To prepare F YES1 kinase enzyme solution, 35 μl of B.4X kinase buffer, 0.4 μl of YES1 enzyme, and 104.6 μl of distilled water were used. Once the diluted compound plates, ATP/substrate mixture, and YES1 kinase solution were all prepared, 3 μL each was transferred from the diluted compound plate to a luciferase 96-well white plate (Since the total volume of the ATP/substrate and YES1 kinase solution that reacts with the compound is 15 μL, the compounds were diluted 5-fold, making the final compound concentration 0.05 μM-1 μM). Then, 6 μL of F. YES1 Kinase Enzyme Solution was transferred to each well, pipetted 10 times to mix, and incubated at room temperature in a shaker for 10 minutes. Next, 6 μL of E. 2.5X ATP/Substrate Mixture was transferred to each well, pipetted 10 times to mix, and centrifuged at 12,000 rpm for 5 minutes. The plate was then incubated in a shaker at room temperature for 40 minutes. After that, 15 μL of ADP-Glo Reagent, dissolved at room temperature, was added to each well, pipetted 10 times, and incubated in a shaker at room temperature for 40 minutes. Finally, 30 μL of Kinase Detection Reagent, dissolved at room temperature, was added, pipetted 10 times, incubated in a shaker at room temperature for 30 minutes. Luminescence was measured using a luminescence plate reader. Then, the background value was subtracted from all measured values, and the YES1 kinase activity at compound concentrations of 1 nM, 10 nM, and 100 nM was calculated. The measured values were calculated as percentages using the average value of the negative control. Graphs were drawn using GraphPad Prism, and the enzyme activity was calculated as a percentage of YES1 kinase inhibition at compound concentrations of 1 nM, 10 nM, and 100 nM. IC50 values were obtained using Microsoft Excel.
# Chain of YES1 kinase (P07947 whole entry): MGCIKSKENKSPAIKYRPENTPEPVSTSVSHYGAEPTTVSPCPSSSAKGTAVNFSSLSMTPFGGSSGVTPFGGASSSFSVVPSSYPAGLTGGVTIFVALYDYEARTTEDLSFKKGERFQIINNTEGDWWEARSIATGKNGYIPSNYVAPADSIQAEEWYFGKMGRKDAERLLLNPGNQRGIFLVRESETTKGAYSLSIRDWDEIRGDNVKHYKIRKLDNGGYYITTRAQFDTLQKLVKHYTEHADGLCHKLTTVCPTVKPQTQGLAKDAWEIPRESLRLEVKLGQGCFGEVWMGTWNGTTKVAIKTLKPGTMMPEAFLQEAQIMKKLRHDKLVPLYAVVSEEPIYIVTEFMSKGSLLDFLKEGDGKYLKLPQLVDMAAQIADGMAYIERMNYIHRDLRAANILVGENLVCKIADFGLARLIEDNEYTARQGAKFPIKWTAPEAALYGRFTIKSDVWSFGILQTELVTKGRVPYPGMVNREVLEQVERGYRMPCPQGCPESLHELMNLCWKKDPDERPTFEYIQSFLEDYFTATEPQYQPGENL
row,Structure (SMILES),inhibition at 0.01 µM [%]
1,"COc1cc(-c2cc(N3CC[C@@H](N(C)C)[C@H](F)C3)n3ncnc(N)c23)ccc1NC(=O)OC(C)(C)C [Example 32, tert-butyl (4-(4-amino-7-((3R,4R)-4-(dimethylamino)-3-fluoropiperidin-1-yl)pyrrolo[2,1-f][1,2,4]triazin-5-yl)-2-methoxyphenyl)carbamate]",51
2,"COc1cc(-c2cc(N3C[C@H]4CN(C)C[C@H]4C3)n3ncnc(N)c23)ccc1NC(=O)OC(C)(C)C [Example 34, tert-butyl (4-(4-amino-7-((3aR,6aS)-5-methylhexahydropyrrolo[3,4-c]pyrrol-2(1H)-yl)pyrrolo[2,1-f][1,2,4]triazin-5-yl)-2-methoxyphenyl)carbamate]",37

# Same assay, conditions: compound 100 nM; read-out: YES1 enzyme, % inhibition, 100 nM
row,Structure (SMILES),inhibition at 0.1 µM [%]
1,"COc1cc(-c2cc(N3CC[C@@H](N(C)C)[C@H](F)C3)n3ncnc(N)c23)ccc1NC(=O)OC(C)(C)C [Example 32, tert-butyl (4-(4-amino-7-((3R,4R)-4-(dimethylamino)-3-fluoropiperidin-1-yl)pyrrolo[2,1-f][1,2,4]triazin-5-yl)-2-methoxyphenyl)carbamate]",82
2,"COc1cc(-c2cc(N3C[C@H]4CN(C)C[C@H]4C3)n3ncnc(N)c23)ccc1NC(=O)OC(C)(C)C [Example 34, tert-butyl (4-(4-amino-7-((3aR,6aS)-5-methylhexahydropyrrolo[3,4-c]pyrrol-2(1H)-yl)pyrrolo[2,1-f][1,2,4]triazin-5-yl)-2-methoxyphenyl)carbamate]",74

# System: KYSE-70 esophageal cancer cell line
# Test: Cell growth inhibition of KYSE-70 (Sulforhodamine B)
# Assay type: cell-based
# Conditions: Homo sapiens; KYSE-70, 72 hours; read-out: KYSE70 GI50
# Experimental: The cell line according to the present invention was selected as KYSE-70, an esophageal cancer cell line in which YES1 is amplified. The evaluation of cell growth inhibition was performed as follows.
# KYSE-70 was cultured in RPMI-1640 (Capricorn) supplemented with 10% FBS (Cellgro). The cells were seeded 24 hours prior to compound treatment, into three 96-well F-bottom clear plates (Greiner), with 7,500 cells per well in 180 μL of medium. The 10 mM compound was diluted 100-fold in medium to prepare a 100 μM compound, which was then placed into a 96-well plate and further 3-fold diluted in medium to prepare a compound plate with concentrations ranging from 0.046 μM to 100 μM. 20 μL of each compound from the drug plate was added to the cell-seeded plates to achieve final concentrations of 0.0046 μM to 10 μM. At the same time, 50 μL of 33% trichloroacetic acid was injected into one plate and the plate was fixed by incubating at 4° C. This was referred to as the Do plate. Viable cells were measured 72 hours after compound treatment by injecting 50 μL of 33% trichloroacetic acid and incubating at 4° C. for more than 1 hour to fix the cells. This was referred to as the D3 plate. After the Do plate and D3 plates were washed 5 times with sterile water, 100 μL of 0.04% Sulforhodamine B solution in 1% acetic acid was added and reacted for 1 hour to stain the cells. After staining, the plates were washed 4 times with 1% acetic acid solution and completely dried. Then, the Sulforhodamine B bound to cellular proteins was completely dissolved with 10 mM Tris base solution (pH 10.5). The absorbance was measured at a wavelength of 510 nm using a microplate reader (TECAN, sunrise microplate reader). The analysis was performed using GraphPad Prism. The average absorbance of the Do plate was set to 0%, and the average absorbance of the negative control of the D3 plate was set to 100%, from which a graph was drawn and the GI50 values were calculated. Each test was performed twice.
row,Structure (SMILES),GI50 [µM]
1,"COc1cc(-c2c(C)c(N3CCC(N)CC3)n3ncnc(N)c23)ccc1NC(=O)OC(C)(C)CF [Example 60, 1-fluoro-2-methylpropan-2-yl (4-(4-amino-7-(4-aminopiperidin-1-yl)-6-methylpyrrolo[2,1-f][1,2,4]triazin-5-yl)-2-methoxyphenyl)carbamate]",≤ 0.1
2,"CNC1CCN(c2c(C)c(-c3ccc(NC(=O)OC(C)(C)CF)c(OC)c3)c3c(N)ncnn23)CC1 [Example 61, 1-fluoro-2-methylpropan-2-yl (4-(4-amino-6-methyl-7-(4-(methylamino)piperidin-1-yl)pyrrolo[2,1-f][1,2,4]triazin-5-yl)-2-methoxyphenyl)carbamate]",≤ 0.1
3,"COc1cc(-c2c(C)c(N3CCC(N(C)C)CC3)n3ncnc(N)c23)ccc1NC(=O)OC(C)(C)CF [Example 62, 1-fluoro-2-methylpropan-2-yl (4-(4-amino-7-(4-(dimethylamino)piperidin-1-yl)-6-methylpyrrolo[2,1-f][1,2,4]triazin-5-yl)-2-methoxyphenyl)carbamate]",≤ 0.1
4,"CNCCC1CCN(c2c(C)c(-c3ccc(NC(=O)OC(C)(C)CF)c(OC)c3)c3c(N)ncnn23)CC1 [Example 63, 1-fluoro-2-methylpropan-2-yl (4-(4-amino-6-methyl-7-(4-(2-(methylamino)ethyl)piperidin-1-yl)pyrrolo[2,1-f][1,2,4]triazin-5-yl)-2-methoxyphenyl)carbamate]",≤ 0.1
5,"CNC1CCN(CCc2c(C)c(-c3ccc(NC(=O)OC(C)(C)CF)c(OC)c3)c3c(N)ncnn23)CC1 [Example 64, 1-fluoro-2-methylpropan-2-yl (4-(4-amino-6-methyl-7-(2-(4-(methylamino)piperidin-1-yl)ethyl)pyrrolo[2,1-f][1,2,4]triazin-5-yl)-2-methoxyphenyl)carbamate]",≤ 0.1
6,"CNCCC1CCN(c2cc(-c3ccc(NC(=O)OC(C)(C)CF)c(OC)c3)c3c(N)ncnn23)CC1 [Example 66, 1-fluoro-2-methylpropan-2-yl (4-(4-amino-7-(4-(2-(methylamino)ethyl)piperidin-1-yl)pyrrolo[2,1-f][1,2,4]triazin-5-yl)-2-methoxyphenyl)carbamate]",≤ 0.1
7,"CNC1CCN(CCc2cc(-c3ccc(NC(=O)OC(C)(C)CF)c(OC)c3)c3c(N)ncnn23)CC1 [Example 67, 1-fluoro-2-methylpropan-2-yl (4-(4-amino-7-(2-(4-(methylamino)piperidin-1-yl)ethyl)pyrrolo[2,1-f][1,2,4]triazin-5-yl)-2-methoxyphenyl)carbamate]",0.1 to 1
8,"COc1cc(-c2cc(CCN3CCC(N)CC3)n3ncnc(N)c23)ccc1NC(=O)OC(C)(C)CF [Example 68, 1-fluoro-2-methylpropan-2-yl (4-(4-amino-7-(2-(4-aminopiperidin-1-yl)ethyl)pyrrolo[2,1-f][1,2,4]triazin-5-yl)-2-methoxyphenyl)carbamate]",≤ 0.1
9,"COc1cc(-c2cc(CCN3CCC(N(C)C)CC3)n3ncnc(N)c23)ccc1NC(=O)OC(C)(C)CF [Example 69, 1-fluoro-2-methylpropan-2-yl (4-(4-amino-7-(2-(4-(dimethylamino)piperidin-1-yl)ethyl)pyrrolo[2,1-f][1,2,4]triazin-5-yl)-2-methoxyphenyl)carbamate]",≤ 0.1
10,"CC1(OC(=O)Nc2ccc(-c3cc(N4CCC(N)CC4)n4ncnc(N)c34)c3c2OCO3)CC1 [Example 70, 1-methylcyclopropyl (7-(4-amino-7-(4-aminopiperidin-1-yl)pyrrolo[2,1-f][1,2,4]triazin-5-yl)benzo[d][1,3]dioxol-4-yl)carbamate]",0.1 to 1
11,"COc1cc(-c2cc(N3CCC(N)CC3)n3ncnc(N)c23)ccc1NC(=O)OC1(C)CC1 [Example 71, 1-methylcyclopropyl (4-(4-amino-7-(4-aminopiperidin-1-yl)pyrrolo[2,1-f][1,2,4]triazin-5-yl)-2-methoxyphenyl)carbamate]",≤ 0.1
12,"COc1cc(-c2cc(N3CCC(N)CC3)n3ncnc(N)c23)ccc1NC(=O)OC(C)(C)C(F)(F)F [Example 72, 1,1,1-trifluoro-2-methylpropan-2-yl (4-(4-amino-7-(4-aminopiperidin-1-yl)pyrrolo[2,1-f][1,2,4]triazin-5-yl)-2-methoxyphenyl)carbamate]",0.1 to 1
13,"CC(C)(C)OC(=O)Nc1ccc(-c2cc(N3CCC(N)CC3)n3ncnc(N)c23)c2c1OCO2 [Example 73, tert-butyl (7-(4-amino-7-(4-aminopiperidin-1-yl)pyrrolo[2,1-f][1,2,4]triazin-5-yl)benzo[d][1,3]dioxol-4-yl)carbamate]",≤ 0.1
14,"CNC1CCN(c2c(C)c(-c3ccc(NC(=O)OC(C)(C)C)c(OC)c3)c3c(N)ncnn23)CC1 [Example 75, tert-butyl (4-(4-amino-6-methyl-7-(4-(methylamino)piperidin-1-yl)pyrrolo[2,1-f][1,2,4]triazin-5-yl)-2-methoxyphenyl)carbamate]",≤ 0.1
15,"COc1cc(-c2c(C)c(N3CCC(N(C)C)CC3)n3ncnc(N)c23)ccc1NC(=O)OC(C)(C)C [Example 76, tert-butyl (4-(4-amino-7-(4-(dimethylamino)piperidin-1-yl)-6-methylpyrrolo[2,1-f][1,2,4]triazin-5-yl)-2-methoxyphenyl)carbamate]",≤ 0.1
16,"CNCCC1CCN(c2c(C)c(-c3ccc(NC(=O)OC(C)(C)C)c(OC)c3)c3c(N)ncnn23)CC1 [Example 77, tert-butyl (4-(4-amino-6-methyl-7-(4-(2-(methylamino)ethyl)piperidin-1-yl)pyrrolo[2,1-f][1,2,4]triazin-5-yl)-2-methoxyphenyl)carbamate]",0.1 to 1
17,"COc1cc(-c2cc(N3CCC(N)C4(CC4)C3)n3ncnc(N)c23)ccc1NC(=O)OC(C)(C)C (stereo not drawn) [Example 80, tert-butyl (4-(4-amino-7-(8-amino-5-azaspiro[2.5]octan-5-yl)pyrrolo[2,1-f][1,2,4]triazin-5-yl)-2-methoxyphenyl)carbamate]",0.1 to 1

# Source: US20260297095A1, “NOVEL PYRROLOTRIAZINE DERIVATIVE AND USE THEREOF” (Pelemed Co., Ltd., priority 2024, published 2026)
